Data published in the SangsterLogP compilation.

logP	Structure (SMILES)
0.38	Nc1nc(Cl)nc2c1cnn2[C@H]1C[C@H](O)[C@@H](CO)O1
0.9	Nc1nc(Cl)nc2c1nc(Br)n2C1CC(O)C(CO)O1 (stereo not given)
0.41	Nc1nc(Br)nc2c1ncn2C1CC(O)C(CO)O1 (stereo not given)
0.47	OCCNc1nc(Cl)nc2c1ncn2[C@H]1C[C@@H](O)[C@@H](CO)O1
0.38	Nc1nc(Cl)nc2c1ccn2[C@H]1C[C@H](O)[C@@H](CO)O1
0.91	CNc1nc(Cl)nc2c1ncn2[C@H]1C[C@H](O)[C@@H](CO)O1
-0.68	Nc1ncnc2c1ncn2[C@H]1C[C@H](O)[C@@H](CO)O1
-0.01	Nc1ncnc2ncn([C@H]3C[C@H](O)[C@@H](CO)O3)c12

The remaining lines, values behind:

Structure (SMILES)	logP
OC[C@H]1O[C@@H](n2nnc3ccccc32)C[C@@H]1O	0.55
OCC1OC(n2cnc3c(NCc4ccccc4)nc(Cl)nc32)CC1O (stereo not given)	2.48
CCn1cnc2c(N)nc(Cl)nc21	1.16
OCC1OC(n2cnc3c(NC4CCCCC4)nc(Cl)nc32)CC1O (stereo not given)	3
OC[C@H]1O[C@@H](n2cnc3ccccc32)C[C@@H]1O	0.69
Nc1nc(Cl)nc2nc[nH]c12	0.35
OC[C@H]1O[C@@H](n2nc3ccccc3n2)C[C@@H]1O	1.06
